Reference: BindingDB's records for patent US20250122166 (ST. JUDE CHILDREN''S RESEARCH HOSPITAL, INC., 2025)

biological target: Protein cereblon (Homo sapiens, UniProt Q96SW2); experiment: Crbn Fluorescence Polarization Assay
Method: In this competitive fluorescent polarization assay Cy5 conjugated lenalidomide analog (Cy5—O-Len)1 was used as a fluorescent probe. 6XHis-CRBN-DDB1 protein (200 nM) and Cy5—O-Len probe (30 nM) were combined in 20 mM HEPES pH 7, 150 mM NaCl, 0.005% Tween-20 assay buffer. 20 μL of this assay cocktail was dispensed into wells of Corning 3821 black 384-well plates. Compounds were transferred to the assay plate from a dose-response plate using a Pintool on a Biomek FXP Laboratory Automation Workstation (Beckman Coulter). The plates were incubated in the dark for 1 hour at room temperature and then read on an Envision plate reader (PerkinElmer, Massachusetts, USA). IC50 values were determined using a proprietary software RISE (Robust Investigation of Screening Experiments), developed in house on the Pipeline Pilot platform (Biovia, v. 17.2.0). Data represent the mean of three independent determinations.

IC50, < 1000 nM:
O=C1CCC(N2Cc3c(CNC(=O)c4ccc(Br)cc4)cccc3C2=O)C(=O)N1 (stereo not drawn) [US20250122166, Compound 18]
O=C1CCC(N2Cc3c(CNC(=O)c4ccc(Cl)cc4Cl)cccc3C2=O)C(=O)N1 (stereo not drawn) [US20250122166, Compound 28]
O=C1CCC(N2Cc3c(CNC(=O)c4ccc(Cl)c(C(F)(F)F)c4)cccc3C2=O)C(=O)N1 (stereo not drawn) [US20250122166, Compound 21]
